# Results as given in patent publication US20030139349A1, “Benzophenone alpha-d-glycopyranosides, preparation and therapeutic use” (priority 2002, published 2003).
# System: female mice of the C57BL/6J strain
# Test: Lowering of serum cholesterol level in mice subjected to a fatty diet (single dose)
# Format: in vivo
# Settings: total serum cholesterol; female C57BL/6J mice on fatty diet (1.25% cholesterol, 0.5% cholic acid); single dose 100 mg/kg by tubage, suspension in 3% aqueous gum
# Method: The antiatheromatous activity of the compounds according to the invention was evaluated as a function of their ability to lower the serum cholesterol level in mice subjected to a fatty diet. […] This correlation affords a test which is more rapid than direct experiments on the atheromatous plaque, which require a lengthy treatment of the animals and an expensive histological study of the walls of the aortic arch.
# The test used consists in administering a single dose of the compound to female mice of the C57BL/6J strain. The protocol is as follows: On the first day (D0), the mice are fasted from 9 am to 5 pm, a blood sample being taken at 2 pm. At 5 pm, a given amount of food (a fatty diet comprising 1.25% of cholesterol and 0.5% of cholic acid) is distributed. On the second day (D1), the food leftovers are weighed at 9 am and the mice are fasted from 9 am to 2 pm. A blood sample is taken at 2 pm. For the treated groups of mice, the compound is administered at 9 am on the second day (D1) by tubage in the form of a suspension in a 3% aqueous solution of gum. The control groups receive only the aqueous gum.
# The compounds were tested at a dose of 100 mg/kg. The total serum cholesterol is assayed and the results are expressed as the percentage inhibition of the increase in cholesterolemia compared with the control group.
row,Compound,Activity (%): percentage inhibition of the increase in cholesterolemia compared with the control group
1,"CC(=O)OC[C@H]1O[C@H](Oc2ccc(C(=O)c3ccc(C#N)cc3)cc2)[C@H](OC(C)=O)[C@@H](OC(C)=O)[C@@H]1OC(C)=O [Example 1, [4-(4-Cyanobenzoyl)phenyl]2,3,4,6-tetra-O-acetyl-α-D-glucopyranoside]",−27%
2,"N#Cc1ccc(C(=O)c2ccc(O[C@H]3O[C@H](CO)[C@@H](O)[C@H](O)[C@H]3O)cc2)cc1 [Example 2, [4-(4-Cyanobenzoyl)phenyl]α-D-glucopyranoside]",−23%
3,"CC(=O)OC[C@H]1O[C@H](Oc2ccc(C(=O)c3ccc(C#N)cc3)cc2)[C@@H](OC(C)=O)[C@@H](OC(C)=O)[C@@H]1OC(C)=O [Example 3, [4-(4-Cyanobenzoyl)phenyl]2,3,4,6-tetra-O-acetyl-α-D-mannopyranoside]",−10%
4,"N#Cc1ccc(C(=O)c2ccc(O[C@H]3O[C@H](CO)[C@@H](O)[C@H](O)[C@@H]3O)cc2)cc1 [Example 4, [4-(4-Cyanobenzoyl)phenyl]α-D-mannopyranoside]",−38%
5,"CC(=O)OC[C@H]1O[C@H](Oc2ccc(C(=O)c3ccc(C#N)cc3)cc2)[C@H](OC(C)=O)[C@@H](OC(C)=O)[C@H]1OC(C)=O [Example 5, [4-(4-Cyanobenzoyl)phenyl]2,3,4,6-tetra-O-acetyl-α-D-galactopyranoside]",−32%
6,"N#Cc1ccc(C(=O)c2ccc(O[C@H]3O[C@H](CO)[C@H](O)[C@H](O)[C@H]3O)cc2)cc1 [Example 6, [4-(4-Cyanobenzoyl)phenyl]α-D-galactopyranoside]",−35%
7,"CC(=O)O[C@@H]1[C@@H](Oc2ccc(C(=O)c3ccc(C#N)cc3)cc2)OC[C@@H](OC(C)=O)[C@H]1OC(C)=O [Example 7, [4-(4-Cyanobenzoyl)phenyl]2,3,4-tri-O-acetyl-α-D-arabinopyranoside]",−25%
8,"N#Cc1ccc(C(=O)c2ccc(O[C@H]3OC[C@@H](O)[C@@H](O)[C@@H]3O)cc2)cc1 [Example 8, [4-(4-Cyanobenzoyl)phenyl]α-D-arabinopyranoside]",−29%
9,"N#Cc1ccc(C(=O)c2ccc(O[C@H]3OC[C@@H](O)[C@H](O)[C@@H]3O)cc2)cc1 [Example 10, [4-(4-Cyanobenzoyl)phenyl]α-D-lyxopyranoside]",−48%
10,"N#Cc1ccc(C(=O)c2ccc(O[C@H]3OC[C@@H](O)[C@@H](O)[C@H]3O)cc2)cc1 [Example 11, [4-(4-Cyanobenzoyl)phenyl]α-D-ribopyranoside]",−26%
